The source made the active and inactive calls.
Assays:
Vaccinia virus = experiment: Antiviral activity against vaccinia virus; type: functional, organism-based; settings: Orthopoxvirus vaccinia
[1] = system: Respiratory syncytial virus; experiment: Antiviral activity against RSV A2 in VERO76 cells assessed as reduction of plaque number by MTT method; type: functional, organism-based; settings: human respiratory syncytial virus, A2, Vero 76
[2] = system: Human immunodeficiency virus 1; experiment: Antiviral activity against HIV1; type: functional, organism-based
[3] = Cytotoxicity against human MT4 cells after 96 hrs by MTT method; type: cell-based
[4] = system: Vesicular stomatitis virus; experiment: Antiviral activity against vesicular stomatitis virus; type: functional, organism-based
Poliovirus 1 = experiment: Antiviral activity against Human poliovirus 1 Sabin; type: functional
Yellow fever virus = experiment: Antiviral activity against YFV in BHK cells assessed as protection from virus-induced cytopathogenicity by MTT method; type: functional, organism-based
[5] = system: Bovine viral diarrhea virus 1; experiment: Antiviral activity against BVDV NADL in MDBK cells assessed as protection from virus-induced cytopathogenicity by MTT method; type: functional, organism-based; settings: Bovine viral diarrhea virus isolates and strains
Reovirus sp. = experiment: Antiviral activity against Reovirus; type: functional, organism-based
Coxsackievirus B2 = experiment: Antiviral activity against coxsackie B2 virus; type: functional, organism-based

| SMILES | Activity (Vaccinia virus) | EC50 [1] [µM] | Activity [2] | CC50 at 96 h [3] [µM] | Activity [4] | Activity (Poliovirus 1) | EC50 (Yellow fever virus) [µM] | EC50 [5] [µM] | Activity (Reovirus sp.) | Activity (Coxsackievirus B2) |
| --- | --- | --- | --- | --- | --- | --- | --- | --- | --- | --- |
| O=c1ccc2ccc(O)c(CN3CCCCC3)c2o1 | inactive | > 100 | inactive | > 100 | inactive | inactive | > 100 | > 100 | inactive | inactive |
| Cc1cc(=O)oc2c(CN3CCN(C)CC3)c(O)ccc12 | inactive | > 100 | inactive | > 100 | inactive | inactive | > 100 | > 100 | inactive |  |
| CCOC(=O)N1CCN(Cc2c(O)ccc3c(C)cc(=O)oc23)CC1 | inactive | ≥ 100 | inactive | > 100 | inactive | inactive | > 100 | > 100 | inactive |  |
| Cc1cc(=O)oc2c(CN3CCOCC3)c(O)ccc12 | inactive | > 100 | inactive | > 100 | inactive | inactive | > 100 | > 100 | inactive |  |
| Cc1cc(=O)oc2c(CN3CCc4ccccc4C3)c(OC(=O)c3ccccc3)ccc12 | inactive | 18 | inactive | > 100 | inactive | inactive | > 100 | > 100 | inactive |  |
| CCC(=O)Oc1[nH]c2ccccc2c1Cc1c(OC(C)=O)ccc2ccc(=O)oc12 | inactive | 60 | inactive | 67 | inactive | inactive | > 72 | > 64 | inactive |  |
| CC(=O)Oc1ccc2c(C)cc(=O)oc2c1Cc1c[nH]c2ccccc12 | inactive | > 100 | inactive | 100 | inactive | inactive | > 81 | ≥ 100 | inactive |  |
| CC(=O)Oc1ccc2c(C)cc(=O)oc2c1Cc1c(C)n(C)c2ccccc12 | inactive | 26 | inactive | 24 | inactive | inactive | > 58 | > 40 | inactive |  |
| CCC(=O)Oc1ccc2c(C)cc(=O)oc2c1Cc1c(-c2ccccc2)[nH]c2ccccc12 | inactive | > 100 | inactive | 38 | inactive | inactive | > 27 | 7 | inactive |  |
| COc1ccc2c(=O)c(Cc3c(OC(C)=O)ccc4ccc(=O)oc34)c(N3CCCC3)oc2c1 | inactive | > 100 | inactive | > 100 | inactive | inactive | > 100 | > 100 | inactive |  |
| COCCN(CCOC)c1oc2ccc3ccccc3c2c(=O)c1Cc1c(OC(C)=O)ccc2c(C)cc(=O)oc12 | inactive | ≥ 100 | inactive | > 100 | inactive | inactive | > 100 | > 100 | inactive |  |
| O=c1ccc2ccc(O)c(CN3CCc4ccccc4C3)c2o1 | inactive | > 100 | inactive | > 100 | inactive | inactive | > 100 | > 100 | inactive |  |
| O=c1ccc2ccc(O)c(CN3CCOCC3)c2o1 | inactive | > 100 | inactive | > 100 | inactive | inactive | > 100 | > 100 | inactive |  |
| CCC(=O)Oc1ccc2ccc(=O)oc2c1Cc1c(-c2ccccc2)[nH]c2ccccc12 | inactive | > 100 | inactive | > 100 | inactive | inactive | > 82 | > 100 | inactive |  |
| Cc1cc(=O)oc2c(CN3CCc4ccccc4C3)c(O)ccc12 | inactive | > 100 | inactive | > 100 | inactive | inactive | > 100 | > 100 | inactive |  |
| COc1ccc2c(=O)c(Cc3c(O)ccc4c(C)cc(=O)oc34)c(N3CCCC3)oc2c1 | inactive | > 100 | inactive | > 100 | inactive | inactive | > 100 | > 100 | inactive |  |
